Experimental data as given in patent US20050144654A1, “Procedure for screening of neuroactive substance and the associated neural plasticity” (COUNCIL OF SCIENTIFIC & INDUSTRIAL RESEARCH, priority 2003, published 2005).
Counter-ions that a name gives are not always drawn. Marks after values point to notes of the source that are not given here.

Experiments:
[1] = tested on: Drosophila melanogaster adult males (wild type Oregon-R strain); assay: Horizontal locomotion assay (distance walked); assay type: in vivo; details: for Distance walked by flies, Mean: n=30; for distance walked than the control: 31 day of drug withdrawal, result in words
Protocol: (§1) Unless otherwise mentioned, standard methods of fly manipulation were followed. Standard fly medium consisting of agar-agar, maize powder, brown sugar, dried yeast and nipagin was used. Flies were cultured at 22±1° C., 60% RH, and 12 hrs light (9 AM to 9 PM) and 12 hours dark cycle. D. melanogaster wild type Oregon-R strain was used in the experiment. To obtain males for control and drug treatment, flies from identical cultures grown in glass vials were first allowed to lay eggs in milk bottles containing medium. Flies were shifted to fresh bottles every 12 hr. First 4 sets of bottles were discarded. Flies that emerged in subsequent bottles were only used. Those that emerged in the beginning were first discarded and then flies were collected twice at 12 hr interval. Flies collected each time were kept separately in a single bottle. Two days after first collection, males and females from both the bottles were separated. Males were then pooled together and shifted to a new bottle. Flies were used for control or drug treatment two days later.
(§2) Following morning after pooling males for treatment, drugs (Sigma-Aldrich Co, St. Louis, U.S.A.) were first dissolved in distilled water at following concentration: 33.3 mg/ml of strychnine (STR), 40 mg/ml of pentylenetetrazol (PTZ), 20 mg/ml of pilocarpine-hydrochloride (PILO), 20 mg/ml of tetraethylammonium chloride (TEA), 10 mg/ml of lithium chloride (LICA), and 10.5 mg/ml of ethosuximide (ESD). Appropriate volume of freshly made drug solutions were then poured in molten fly media, and mixed thoroughly, to achieve a final concentration of 3.33 mg/ml of STR, 4 mg/ml of PTZ, 2 mg/ml of PILO, 2 mg/ml of TEA, 1 mg/ml of LICA, and 1.05 mg/ml of ESD. For control, i.e., normal food (NF), distilled water of same volume as drug solution was added in the medium and mixed. Following this, the molten media was dispensed in glass vials, stored overnight at 4° C. and then used for above treatment of flies. Thirty male flies were shifted to each of the seven treatment vials, NF, STR, PTZ, PILO, TEA, LICA and ESD. Flies were maintained at 22±1° C., 60% RH, and 12 hrs light (9 AM to 9 PM) and 12 hours dark cycle.
(§3) Negative geotaxis assays for measuring height climbed and climbing speed, and horizontal locomotion assay for measuring distance walked—were performed at room temperature, between 9 AM to 9 PM. They were all performed at a specified area in a room, where same light sources were always used. While measuring various locomotor activities, extreme care was taken to ensure that the room is quiet, and the table onto which assays were performed undisturbed and vibration free. Utmost care was taken to ensure identical handling of flies, in minutest details. For measuring height climbed, climbing speed and distance walked, a single fly was randomly selected at a time. This was achieved by first inverting flies from a given treatment vial into an empty vial and then continuously and gently shaking and inverting both the vials in such a way that a single fly is finally trapped in the empty vial. Once trapped, all the three locomotor activities were measured using the same fly, height climbed, climbing speed and distance walked, in that order. One fly each from NF, STR, PTZ, PILO, TEA, LICA, and ESD, selected randomly, was first scored and then the same exercise was repeated for another two flies. Once a fly was scored for all the three locomotor activities, it was discarded. Flies were particularly checked for intact legs and wings, before they were used in negative geotaxis and horizontal locomotion assays.
(§4) A glass tube of 1.7 cm diameter and […], along with two cotton plugs were used in negative geotaxis and horizontal locomotion assays. The tube was length wise marked with lines at every cm. Three flies from each treatment were assayed. Each fly was assayed 10 times in succession.

[2] = tested on: Drosophila melanogaster adult males (wild type Oregon-R strain); assay: Negative geotaxis assay (height climbed, climbing speed); assay type: in vivo; details: for Climbing speed of flies, Mean / Height climbed by flies, Mean: n=30
Protocol: as §1, §2, §3, §4

[3] = 31st day after drug withdrawal, result in words
[4] = day 7 of the beginning of treatment, result in words
[5] = day 7 of the beginning of treatment, drug in fly medium
[6] = 4th day after drug withdrawal (21st day of beginning of treatment)
[7] = 31st day after drug withdrawal (48th day of beginning of treatment)

SMILES: C1CCc2nnnn2CC1 [PTZ, pentylenetetrazol]
- Distance walked by flies, Mean ([1]; 4th day after drug withdrawal): 28.03*** cm marks crossed per minute
- Distance walked by flies, Mean ([1]; 31st day after drug withdrawal): 12.5* cm marks crossed per minute
- Distance walked, Mean ([1]; 168 h): 42.5** cm marks crossed per minute
- distance walked than the control [1]: lesser
- Climbing speed of flies, Mean ([2]; 4th day after drug withdrawal): 1.25** cm/sec
- Climbing speed of flies, Mean ([2]; 31st day after drug withdrawal): 1.37*** cm/sec
- climbing speed than the control (Table 2) [2, 3]: lower
- Climbing speed, Mean ([2]; 168 h): 1.63*** cm/sec
- Height climbed, Mean ([2]; 168 h): 29.13*** cm
- height climbed compared to NF, the control [2, 4]: increase

SMILES: CC[N+](CC)(CC)CC.[Cl-] [TEA, tetraethylammonium chloride]
- Distance walked by flies, Mean ([1]; 4th day after drug withdrawal): 26.76*** cm marks crossed per minute
- Distance walked by flies, Mean ([1]; 31st day after drug withdrawal): 27.16 cm marks crossed per minute
- Distance walked, Mean [1, 5]: 45.1*** cm marks crossed per minute
- Height climbed by flies, Mean [2, 6]: 22.13 cm
- Climbing speed of flies, Mean ([2]; 4th day after drug withdrawal): 1.11 cm/s
- Height climbed by flies, Mean [2, 7]: 16.2 cm
- Climbing speed, Mean [2, 5]: 1.67*** cm/sec
- Height climbed, Mean [2, 5]: 32*** cm
- height climbed compared to NF, the control [2, 4]: increase

SMILES: CCC1(C)CC(=O)NC1=O (centres unmarked) [ESD, ethosuximide]
- Distance walked by flies, Mean ([1]; 4th day after drug withdrawal): 40.16*** cm marks crossed per minute
- Distance walked by flies, Mean ([1]; 31st day after drug withdrawal): 30.63 cm marks crossed per minute
- Distance walked, Mean [1, 5]: 37.1 cm marks crossed per minute
- Height climbed by flies, Mean [2, 6]: 32.66*** cm
- Climbing speed of flies, Mean ([2]; 4th day after drug withdrawal): 1.5*** cm/sec
- height climbed compared to NF ([2]; 4th day after drug withdrawal, result in words): increase
- Height climbed by flies, Mean [2, 7]: 19.5*** cm
- Climbing speed of flies, Mean ([2]; 31st day after drug withdrawal): 1.52*** cm/sec
- climbing speed than the control (Table 2) [2, 3]: greater
- Climbing speed, Mean [2, 5]: 0.98 cm/s
- Height climbed, Mean [2, 5]: 25.66* cm
- height climbed compared to NF, the control [2, 4]: increase

SMILES: [Cl-].[Li+] [LICA, lithium chloride]
- Distance walked by flies, Mean ([1]; 4th day after drug withdrawal): 33*** cm marks crossed per minute
- Distance walked by flies, Mean ([1]; 31st day after drug withdrawal): 6.93*** cm marks crossed per minute
- distance walked than the control [1]: lesser
- Distance walked, Mean [1, 5]: 34.23 cm marks crossed per minute
- Height climbed by flies, Mean [2, 6]: 25.33 cm
- Climbing speed of flies, Mean ([2]; 4th day after drug withdrawal): 1.22* cm/sec
- Height climbed by flies, Mean [2, 7]: 11.4* cm
- Climbing speed of flies, Mean ([2]; 31st day after drug withdrawal): 1.3*** cm/sec
- climbing speed than the control (Table 2) [2, 3]: lower
- Climbing speed, Mean [2, 5]: 1.9*** cm/sec
- Height climbed, Mean [2, 5]: 35.8*** cm
- height climbed compared to NF, the control [2, 4]: increase

SMILES: O=C1C[C@@H]2OCC=C3CN4CC[C@]56c7ccccc7N1[C@H]5[C@H]2[C@H]3C[C@H]46 [STR, strychnine]
- Distance walked by flies, Mean ([1]; 4th day after drug withdrawal): 43.66 cm marks crossed per minute
- Distance walked by flies, Mean ([1]; 31st day after drug withdrawal): 27.66 cm marks crossed per minute
- Distance walked, Mean [1, 5]: 39.33* cm marks crossed per minute
- Height climbed by flies, Mean [2, 6]: 26.26 cm
- Climbing speed of flies, Mean ([2]; 4th day after drug withdrawal): 1.29** cm/sec
- Height climbed by flies, Mean [2, 7]: 15.8 cm
- Climbing speed of flies, Mean ([2]; 31st day after drug withdrawal): 1.04* cm/sec
- Climbing speed, Mean [2, 5]: 1.53*** cm/sec
- Height climbed, Mean [2, 5]: 33.36*** cm

SMILES: CC[C@@H]1C(=O)OC[C@@H]1Cc1cncn1C [PILO, pilocarpine-hydrochloride]
- Distance walked by flies, Mean ([1]; 4th day after drug withdrawal): 33.83** cm marks crossed per minute
- Distance walked by flies, Mean ([1]; 31st day after drug withdrawal): 21.16 cm marks crossed per minute
- Distance walked, Mean [1, 5]: 48.53*** cm marks crossed per minute
- Height climbed by flies, Mean [2, 6]: 19.96 cm
- Climbing speed of flies, Mean ([2]; 4th day after drug withdrawal): 1.32** cm/sec
- Height climbed by flies, Mean [2, 7]: 16.46 cm
- Climbing speed of flies, Mean ([2]; 31st day after drug withdrawal): 1.14** cm/sec
- Climbing speed, Mean [2, 5]: 1.52*** cm/sec
- Height climbed, Mean [2, 5]: 34.66*** cm
- height climbed compared to NF, the control [2, 4]: increase
